From patent US20120214843A1, “Combination Treatment of Hydroxpyridonate Actinide/Lanthanide Decorporation Agents” (priority 2009, published 2012) come the findings set out here.

Data set [1] can be described thus: Clearing Pu from mouse tissues relative to CaNa3-DTPA. The data set is classed as in vivo. The source says: (§1) In vivo Efficacy. […] For example, the efficiency of 3,4,3-LI-1,2-HOPO for clearing circulating Pu from mouse tissues ranges from 100 times (skeleton) to 240 times (soft tissues) that of CaNa3-DTPA in five different protocols. In addition, the optimal activity dose of 3,4,3-LI-1,2-HOPO for removing newly deposited Pu from mice is 2.5% of the dose of CaNa3-DTPA used clinically. The tetradentate 5-LIO-Me-3,2-HOPO has potential therapeutic value for Pu, U, Am and Np, and its efficiency for clearing circulating Pu from mouse tissues ranges from 5 times (skeleton) to 15 times (liver) that of CaNa3-DTPA.

Data set [2] is described as follows: Actinide decorporation in mice after iv 238Pu(IV) injection, single or combined HOPO ligands. The data set is classed as in vivo, Swiss-Weber mice. The conditions noted are these: ligand injected ip at 24 h. On the procedure: (§2) Ligand Combination. […] Tetradentate 5-LIO(Me-3,2-HOPO), HOPO (2), is structurally suitable for chelating Np(V) and U(VI). Treatment is likely to be delayed in human contamination with dispersed radionuclides. Those conditions were approached, using mice, by ligand injection ip at 24 h or oral administration at 1 or 24 h after an iv actinide injection. Dosages of (1) and (2) were, respectively, 30 and 100 μmolkg^−1 ip and 100 and 200 μmolkg^−1 oral. Because mixtures of radionuclides may be released, (1) and (2) were combined to take advantage of their differing efficacies for the actinides. Dosages of combined (1) and (2) were, respectively, 30 plus […] injected ip and […] oral. Actinides in all mouse tissues and excreta were determined using published methods.
(§3) Tetradentate 5-LIO(Me-3,2-HOPO), HOPO (2), is structurally suitable for chelating Np(V) and U(VI). Treatment is likely to be delayed in human contamination with dispersed radionuclides. Those conditions were approached, using mice, by ligand injection ip at 24 h or oral administration at 1 or 24 h after an iv actinide injection. Dosages of (1) and (2) were, respectively, 30 and 100 μmolkg-1 ip and 100 and 200 μmolkg-1 oral. […] Actinides in all mouse tissues and excreta were determined using published methods. […]

Data set [3] in a line: Actinide decorporation in mice, all actinides and protocols, comparison of treatments. The arrangement: species or system Swiss-Weber mice. The conditions noted are these: mouse. On the procedure: as §2, §3
Data set [4] in a line: In vivo actinide chelation and removal compared with CaNa3-DTPA. The arrangement: species or system mice.
Source text: as §1
(§4) Oral Activity. Both compounds are orally active actinide chelators: when administered orally to mice or beagles after a Pu injection, 3,4,3-LI-1,2-HOPO and 5-LIO-Me-3,2-HOPO can remove up to 80% and 60%, respectively, of the injected Pu.

Data set [5] in a line: Oral removal of injected Pu. The class given is in vivo. The settings on record: administered orally to mice or beagles after a Pu injection.
Source text: as §4

Data set [6] can be described thus: Actinide decorporation in mice after iv 241Am(III) injection, single or combined HOPO ligands. The class given is in vivo, Swiss-Weber mice. The settings on record: ligand injected ip at 24 h. On the procedure: as §2, §3
The nature of data set [7]: Pharmacokinetic studies using 14C-labeled ligands. The data set is classed as in vivo.
Data set [8] can be described thus: Actinide decorporation in mice after iv 237Np(V) injection, single or combined HOPO ligands. The class given is in vivo, Swiss-Weber mice. On the procedure: as §2
(§5) Tetradentate 5-LIO(Me-3,2-HOPO), HOPO (2), is structurally suitable for chelating Np(V) and U(VI). Treatment is likely to be delayed in human contamination with dispersed radionuclides. Those conditions were approached, using mice, by ligand injection ip at 24 h or oral administration at 1 or 24 h after an iv actinide injection. Dosages of (1) and (2) were, respectively, 30 and 100 μmolkg-1 ip and 100 and 200 μmolkg-1 oral. Because mixtures of radionuclides may be released, (1) and (2) were combined to take advantage of their differing efficacies for the actinides. Dosages of combined (1) and (2) were, respectively, 30 plus 100 μmolkg-1 injected ip and 100 and 200 μmolkg-1 oral. Actinides in all mouse tissues and excreta were determined using published methods.
(§6) Objective: to assay the efficacy of the two ligands at promoting radionuclide excretion with prompt or delayed administration, as single or combined treatments, and to identify target organs and excretion pathways. The test system used Swiss-Weber mice (˜35 g). Actinide loading involves intravenous injection of An-citrate complex at t0. Samples of later taken of the whole skeleton, liver, kidneys, bulk soft tissues, urine, and feces (Σ=100%). (See Table 1.)

A short description of data set [9]: Actinide decorporation in mice after iv 233U(VI) injection, single or combined HOPO ligands. The data set is classed as in vivo, Swiss-Weber mice. The protocol:
as §2, §5, §6

Bounds are passed on as bounds.

In the case of `O=C(NCCCN(CCCCN(CCCNC(=O)c1cccc(=O)n1O)C(=O)c1cccc(=O)n1O)C(=O)c1cccc(=O)n1O)c1cccc(=O)n1O` [3,4,3-LI(1,2-HOPO)], the “optimal activity dose for removing newly deposited Pu from mice” value in data set [1] (mice) is 2.5 % of the dose of CaNa3-DTPA used clinically. Further, the “efficiency for clearing circulating Pu from mouse tissues, skeleton” value in data set [1] is 100 times that of CaNa3-DTPA. In addition, the “efficiency for clearing circulating Pu from mouse tissues, soft tissues” value in data set [1] (soft tissues, five different protocols) was 240 times that of CaNa3-DTPA. In addition, in data set [2], the “reduction of liver and skeleton actinide, Pu(IV)” value is “appreciable and significant reductions”. Besides, the “in vivo chelation of Pu(IV) and Am(III)” value in [3] is “highly effective”. For the same molecule, the “removing newly deposited Pu, Np, Am and U from mice, compared with CaNa3-DTPA” value in data set [4] is reported as “significantly more effective”. Besides, in [4] (mouse, in vivo), the “Pu, Np, Th, Am and Cf chelation in vivo” value was “highly effective”. Further, the “injected Pu removed” value in data set [5] is given as “up to 80%”. Also, the “reduction of liver and skeleton actinide, Am(III)” value in data set [6] was “appreciable and significant reductions”. Also, the “stability to metabolic degradation” value in data set [7] is “stable to metabolic degradation”.
Consider `Cn1ccc(C(=O)NCCOCCNC(=O)c2ccn(C)c(=O)c2O)c(O)c1=O` [5-LIO(Me-3,2-HOPO)], for which, in data set [1] (liver), the “efficiency for clearing circulating Pu from mouse tissues, liver” value was 15 times that of CaNa3-DTPA. Also, the “efficiency for clearing circulating Pu from mouse tissues, skeleton” value in data set [1] is given as 5 times that of CaNa3-DTPA. Further, in data set [4], the “removing newly deposited Pu, Np, Am and U from mice, compared with CaNa3-DTPA” value is “significantly more effective”. For the same molecule, the “Np(V) excretion” value in data set [8] (ligand given orally at 1 h) is “about 115 % control”; in [8] (ligand injected ip at 24 h), “about 3 times control”. Further, the figures for the “liver Np(V)” value in [8] (ligand given orally at 1 h), in data set [8] (ligand injected ip at 24 h) and in data set [8] (oral treatment at 24 h) were 25 % control, 30 % control and 50 % control, respectively. In addition, the “U(VI) excretion” value was “about 115 % control” in data set [9] (ligand given orally at 1 h) and “about 3 times control” in [9] (ligand injected ip at 24 h). Further, the figures for the “kidney U(VI)” value in [9] (ligand given orally at 1 h), in data set [9] (ligand injected ip at 24 h) and in data set [9] (oral treatment at 24 h) were 50 % control, 45 % control and 70 % control, respectively. The “injected Pu removed” value in [5] was ≤ 60%. In addition, the “stability to metabolic degradation” value in data set [7] is “stable to metabolic degradation”.
